From US12637424B2, “Pharmaceutical salt of an arylpyrrole derivative” (SENTINEL ONCOLOGY LIMITED, priority 2020, dated 2026)

Columns and labels:
HeLa = experiment: Mitotic index (phospho-histone H3) assay; format: cell-based; details: Homo sapiens, % mitotic cells (pH3-positive), 24 hours
Description: (§1) Inhibiting the ability of PLK1 and PLK4 to bind to their partners through their PBDs is known to cause cells to arrest in mitosis. Experimentally, this can be measured by assessing the number of cells which are in mitosis at a certain time after treatment with a test compound by immunofluorescent detection of phosphorylated Histone H3 (pH3), a mark which is only present in mitotic cells. PLK1/4-PBD inhibitors are expected to cause a dose-dependent increase in pH3-positive cells, which is reported as Mitotic Index (MI)—the percentage of cells which, at a given time, are positive for this mitotic mark. Cells were plated at 10 000/well in 96-well plates and incubated overnight. The following day atropisomer A-2 stocks in DMSO were diluted in medium then added to cells with a maximum final DMSO concentration on cells of 0.2%. Cells were incubated with the compound for 24 hours then fixed in 3.7% formaldeyde. Cells were permeabilised with 0.1% Triton X-100 then incubated with anti-phospho-histone H3 (Ser10) antibody (Abcam ab5176). The cells were washed with PBS then incubated with AlexaFluor 488 labelled goat anti-rabbit IgG (Invitrogen A11034) in the presence of 4 ug/ml Hoechst 33342 (Invitrogen H3570). Cells were washed in PBS then imaged on an Arrayscan VTi HCS instrument (Thermo Fisher) using the Target Activation V4 Bioapplication. […]

U87MG = experiment: Mitotic index (phospho-histone H3) assay; format: cell-based; details: Homo sapiens, U-87 MG; % mitotic cells (pH3-positive), 24 hours
Description: as §1

PLK4 (catalytic domain) = biological target: T1, PLK4 (catalytic domain) (Homo sapiens, UniProt O00444); experiment: DiscoverX KinomeScreen competition binding assay
T1 construct: purchased DiscoverX; host or cells: E. coli (BL21-derived, T7 phage display) or HEK-293
Experimental: (§2) This has been investigated by testing atropisomer A-2 for off-target activity against a panel of ninety-seven kinases distributed across the kinome at a concentration of 3 μM using the DiscoverX KinomeScreen assay. The DiscoverX KinomeScreen assay is a site-directed competition binding assay which measures the binding affinity of a compound to a kinase, by use of a solid supported control compound which can bind or capture the kinases in solution. In the absence of a kinase-inhibitor test compound, all of the kinase will bind to the solid support. If a kinase-inhibitor test compound is added to the assay mix, the amount of kinase binding to the solid support will be reduced, the extent of reduction being dependent on the potency of the test compound as a kinase inhibitor. […] For most assays, kinase-tagged T7 phage strains were grown in parallel in 24-well blocks in an E. coli host derived from the BL21 strain. E. coli were grown to log-phase and infected with T7 phage from a frozen stock (multiplicity of infection=0.4) and incubated with shaking at 32° C. until lysis (90-150 minutes). The lysates were centrifuged (6,000×g) and filtered (0.2 μm) to remove cell debris. The remaining kinases were produced in HEK-293 cells and subsequently tagged with DNA for qPCR detection. Streptavidin-coated magnetic beads were treated with biotinylated small molecule ligands for 30 minutes at room temperature to generate affinity resins for kinase assays. The liganded beads were blocked with excess biotin and washed with blocking buffer (SeaBlock (Pierce), 1% BSA, 0.05% Tween 20, 1 mM DTT) to remove unbound ligand and to reduce non-specific phage binding. […] Test compounds were prepared as 40× stocks in 100% DMSO and directly diluted into the assay. All reactions were performed in polypropylene 384-well plates in a final volume of 0.02 ml. […] The beads were then re-suspended in elution buffer (1×PBS, 0.05% Tween 20, 0.5 μM non-biotinylated affinity ligand) and incubated at room temperature with shaking for 30 minutes. The kinase concentration in the eluates was measured by qPCR. Compounds that bind the kinase active site and directly (sterically) or indirectly (allosterically) prevent kinase binding to the immobilized ligand, will reduce the amount of kinase captured on the solid support. […] The strength of binding of the test molecule to the kinase can be expressed as the percent control (% Ctrl) The compound(s) were screened at 3000 nM concentration, and results for primary screen binding interactions are reported as ‘% Ctrl’, where lower numbers indicate stronger hits in the matrix on the following page(s). [formula] • negative control=DMSO (100% Ctrl) • positive control=control compound (0% Ctrl)

PLK1 (catalytic domain) = biological target: T2, PLK1 (catalytic domain) (Homo sapiens, UniProt P53350); experiment: DiscoverX KinomeScreen competition binding assay
T2 construct: purchased DiscoverX; host or cells: E. coli (BL21-derived, T7 phage display) or HEK-293
Experimental: as §2

[1] = tested on: HeLa cells engineered to inducibly express wild-type KRAS; experiment: Wild-type versus KRAS HeLa cell viability (Cell Titre Blue); format: cell-based; details: Homo sapiens, wild-type KRAS transgene, 72 hours, read-out: WT GI50
Experimental: Thus, atropisomer A-2 was tested on HeLa cells engineered to inducibly express wild-type or oncogenic […] transgenes using the FLP-in/T-Rex system (Invitrogen). Cells were plated, and then treated with or without doxycycline to induce transgene expression, and then treated with serially-diluted atropisomer A-2. After 72 hours of incubation, cell viability was assessed using the Cell Titre Blue reagent (Promega) and a BMG Pherastar plate reader. The effect of PBD inhibition on cell viability with either wild-type or oncogenic G12V KRAS was assessed using GraphPad Prism.

U87MG cells = experiment: Mitotic phenotype classification; format: cell-based; details: 0.03 μM, 24 hours
Experimental: Distinct mitotic phenotypes are induced following inhibition of PLK1 and PLK4 in cells. […] Centriole assembly is controlled by PLK4, with inhibitors inducing a multipolar spindle phenotype due to centrosome defects which results in abnormal cyokinesis (Wong et al., 2015. Science 348(6239); 1155-1160). Cells were plated at 10 000/well in 96-well plates and incubated overnight. The following day atropisomer A-2 stocks in DMSO were diluted in medium then added to cells with a maximum final DMSO concentration on cells of 0.2%. Cells were incubated with the compound for 24 hours then fixed in 3.7% formaldeyde. Cells were permeabilised with 0.1% Triton X-100 then incubated with anti-phospho-histone H3 (Ser10) antibody (Abcam ab5176). The cells were washed with PBS then incubated with AlexaFluor 488 labelled goat anti-rabbit IgG (Invitrogen A11034) in the presence of 4 ug/ml Hoechst 33342 (Invitrogen H3570). Cells were washed in PBS then imaged on an Arrayscan VTi HCS instrument (Thermo Fisher) using the Target Activation V4 Bioapplication. A user-defined threshold was applied to identify mitotic cells based on the intensity of phospho-histone H3 staining. In a separate study, following the above protocol but using single compound concentrations of 0.03 μM for each of atropisomer A-1 and atropisomer A-2, the frequency of observed mitotic phenotypes in U87MG cells was manually assessed and classified into the following phenotypes: non-congressed chromosomes, multipolar spindles/abnormal cytokinesis, monopolar spindles, normal prometaphase, normal metaphase for each of A-1 and A-2.

[2] = 3 μM (3000 nM), lower = stronger binding, read-out: % Control

T1 sequence (O00444 12-265 limits assumed): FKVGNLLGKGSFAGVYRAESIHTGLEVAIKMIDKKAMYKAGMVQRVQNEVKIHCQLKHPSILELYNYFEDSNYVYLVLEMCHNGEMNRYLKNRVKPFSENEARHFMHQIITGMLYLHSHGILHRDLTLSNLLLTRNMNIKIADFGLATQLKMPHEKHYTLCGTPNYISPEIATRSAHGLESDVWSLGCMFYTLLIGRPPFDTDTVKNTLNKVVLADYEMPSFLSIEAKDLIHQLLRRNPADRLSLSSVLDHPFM
T2 sequence (P53350 53-305 limits assumed): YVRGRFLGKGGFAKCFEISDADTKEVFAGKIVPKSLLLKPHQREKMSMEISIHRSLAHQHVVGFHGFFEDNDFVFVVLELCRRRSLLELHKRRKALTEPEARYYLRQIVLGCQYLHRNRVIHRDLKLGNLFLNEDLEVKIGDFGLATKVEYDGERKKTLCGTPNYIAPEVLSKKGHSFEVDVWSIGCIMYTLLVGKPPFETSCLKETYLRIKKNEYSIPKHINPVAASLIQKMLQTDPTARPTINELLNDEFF

Row | Structure (SMILES) | EC50 (HeLa) [nM] | EC50 (U87MG) [nM] | remaining binding at 3 µM (PLK4 (catalytic domain); [2]) [%] | % Ctrl @ 3 μM (PLK4 (catalytic domain); PLK4, screened at 3000 nM) [% Ctrl] | remaining binding at 3 µM (PLK1 (catalytic domain); [2]) [%] | % Ctrl @ 3 μM (PLK1 (catalytic domain); PLK1, screened at 3000 nM) [% Ctrl] | GI50 [1] [nM] | cells with abnormal cytokinesis (U87MG cells) [%] | cells with non-congressed chromosomes (U87MG cells) | cells with normal mitotic phenotype (U87MG cells) [%]
1 | CN(C)CCNC(=O)c1ccc(-c2ccc(-c3ccc(Cl)cc3)n2-c2ccccc2C(F)(F)F)cc1 (single isomer, unassigned) [Atropisomer A-2] | 30 | 90 | 100 | 100 | 97 | 97 | 3.01 | – | – | –
2 | CN(C)CCNC(=O)c1ccc(-c2ccc(-c3ccc(Cl)cc3)n2-c2ccccc2C(F)(F)F)cc1 (single isomer, unassigned; atropisomer a) [Atropisomer A-1] | – | – | – | – | – | – | – | 24 | No evidence | 76
